Data from patent US12053459B2, “CDK2 inhibitors and methods of using the same” (Cedilla Therapeutics, Inc., priority 2021, dated 2024).
pIC50: −log10 of the molar value.

Tests used:
[1] = target: CDK2/Cyclin E1(14-475) (Homo sapiens, UniProt P24941); test: Caliper LabChip EZ Reader mobility shift assay, inhibition of CDK2/Cyclin E1 activity; format: biochemical; settings: class symbols A-D
How it was run: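 CDK2/Cyclin E1(14-475) pre-incubated 30 min with compound and ATP, then reaction started with 5-FAM-QSPKKG-CONH2; final 2.5 nM enzyme, 100 μM ATP, 1.5 μM peptide, HEPES pH 7.5. Stopped with EDTA after 100 min; substrate/product conversion by capillary electrophoresis mobility shift, IC50 from four-parameter fit.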

[2] = tested on: Kuramochi cells; test: BrdU cell proliferation assay (colorimetric ELISA), Kuramochi cells; format: cell-based; settings: class symbols A-D
How it was run: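 Kuramochi cells (2,000/well, with Kuramochi RB^KO cells as a specificity control) were treated with a 4-point, 3-fold dilution series made from 10 mM compound stocks and left for 4 days at 37 °C. Proliferation was measured by 1 h BrdU labelling, then anti-BrdU peroxidase ELISA read at 450 nm. Signals were background-subtracted and normalized to DMSO wells.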

pIC50 [1] | Structure (SMILES) | pIC50 [2]
< 5.00 | CNC(=O)[C@H](CCCc1ccccc1)NC(=O)C1CN(C(=O)c2cnc(OC)cn2)CC2CN(C(=O)c3ccc(OC(C)C)c(OC)c3)CC21 (stereo partly drawn) [I-163] | < 5.00
< 5.00 | CNC(=O)[C@H](CCCc1ccccc1)NC(=O)C1CN(C(=O)CCc2ccccn2)CC2CN(C(=O)c3ccc(OC(C)C)c(OC)c3)CC21 (stereo partly drawn) [I-164] | < 5.00
< 5.00 | CNC(=O)[C@H](CCCc1ccccc1)NC(=O)C1CN(C(=O)c2[nH]ccc2C)CC2CN(C(=O)c3ccc(OC(C)C)c(OC)c3)CC21 (stereo partly drawn) [I-171] | < 5.00
5.30 to 6.30 | CNC(=O)[C@H](CCCc1ccccc1)NC(=O)C1CN(C(=O)Cc2c[nH]c3cc(F)ccc23)CC2CN(C(=O)c3ccc(OC(C)C)c(OC)c3)CC21 (stereo partly drawn) [I-174] | < 5.00
< 5.00 | CNC(=O)[C@H](CCCc1ccccc1)NC(=O)C1CN(C(=O)Cc2c[nH]c3cccc(OC)c23)CC2CN(C(=O)c3ccc(OC(C)C)c(OC)c3)CC21 (stereo partly drawn) [I-176] | < 5.00
< 5.00 | CNC(=O)[C@H](CCCc1ccccc1)NC(=O)C1CN(C(=O)c2cccc3[nH]ccc23)CC2CN(C(=O)c3ccc(OC(C)C)c(OC)c3)CC21 (stereo partly drawn) [I-180] | < 5.00
< 5.00 | CNC(=O)[C@H](CCCc1ccccc1)NC(=O)C1CN(C(=O)c2sc(C)nc2C)CC2CN(C(=O)c3ccc(OC(C)C)c(OC)c3)CC21 (stereo partly drawn) [I-185] | < 5.00
< 5.00 | CNC(=O)[C@H](CCCc1ccccc1)NC(=O)C1CN(C(=O)c2oc(C)nc2C)CC2CN(C(=O)c3ccc(OC(C)C)c(OC)c3)CC21 (stereo partly drawn) [I-188] | < 5.00
< 5.00 | CNC(=O)[C@H](CCCc1ccccc1)NC(=O)C1CN(C(=O)c2c[nH]c3ccc(F)cc23)CC2CN(C(=O)c3ccc(OC(C)C)c(OC)c3)CC21 (stereo partly drawn) [I-190] | < 5.00
< 5.00 | CNC(=O)[C@H](CCCc1ccccc1)NC(=O)C1CN(C(=O)CCCc2ccccn2)CC2CN(C(=O)c3ccc(OC(C)C)c(OC)c3)CC21 (stereo partly drawn) [I-192] | < 5.00
< 5.00 | CNC(=O)[C@H](CCCc1ccccc1)NC(=O)C1CN(C(=O)c2ncoc2C)CC2CN(C(=O)c3ccc(OC(C)C)c(OC)c3)CC21 (stereo partly drawn) [I-193] | < 5.00
< 5.00 | CNC(=O)[C@H](CCCc1ccccc1)NC(=O)C1CN(C(=O)c2ncc(Cl)cn2)CC2CN(C(=O)c3ccc(OC(C)C)c(OC)c3)CC21 (stereo partly drawn) [I-196] | < 5.00
< 5.00 | CNC(=O)[C@H](CCCc1ccccc1)NC(=O)C1CN(C(=O)Cc2cc[nH]n2)CC2CN(C(=O)c3ccc(OC(C)C)c(OC)c3)CC21 (stereo partly drawn) [I-198] | < 5.00
< 5.00 | CNC(=O)[C@H](CCCc1ccccc1)NC(=O)C1CN(C(=O)c2ccc3cccn3c2)CC2CN(C(=O)c3ccc(OC(C)C)c(OC)c3)CC21 (stereo partly drawn) [I-199] | < 5.00
5.30 to 6.30 | CNC(=O)[C@H](CCCc1ccccc1)NC(=O)C1CN(C(=O)Cc2c(C)[nH]c3ccccc23)CC2CN(C(=O)c3ccc(OC(C)C)c(OC)c3)CC21 (stereo partly drawn) [I-201] | < 5.00
< 5.00 | CNC(=O)[C@H](CCCc1ccccc1)NC(=O)C1CN(C(=O)Cc2ccncc2)CC2CN(C(=O)c3ccc(OC(C)C)c(OC)c3)CC21 (stereo partly drawn) [I-202] | < 5.00
5.30 to 6.30 | CNC(=O)[C@H](CCCc1ccccc1)NC(=O)C1CN(C(=O)Cc2c[nH]c3cc(C#N)ccc23)CC2CN(C(=O)c3ccc(OC(C)C)c(OC)c3)CC21 (stereo partly drawn) [I-203] | < 5.00
5.30 to 6.30 | CNC(=O)[C@H](CCCc1ccccc1)NC(=O)C1CN(C(=O)Cc2coc3cc(Cl)ccc23)CC2CN(C(=O)c3ccc(OC(C)C)c(OC)c3)CC21 (stereo partly drawn) [I-204] | < 5.00
5.30 to 6.30 | CNC(=O)[C@H](CCCc1ccccc1)NC(=O)C1CN(C(=O)Cc2n[nH]c3cc(Cl)ccc23)CC2CN(C(=O)c3ccc(OC(C)C)c(OC)c3)CC21 (stereo partly drawn) [I-205] | < 5.00

The remaining lines, values behind:

Structure (SMILES) | pIC50 [1] | pIC50 [2]
CNC(=O)[C@H](CCCc1ccccc1)NC(=O)C1CN(C(=O)c2cc3cc(C)ccc3[nH]2)CC2CN(C(=O)c3ccc(OC(C)C)c(OC)c3)CC21 (stereo partly drawn) [I-162] | < 5.00 | < 5.00
CNC(=O)[C@H](CCCc1ccccc1)NC(=O)C1CN(C(=O)c2ccc3nccnc3c2)CC2CN(C(=O)c3ccc(OC(C)C)c(OC)c3)CC21 (stereo partly drawn) [I-165] | < 5.00 | < 5.00
CNC(=O)[C@H](CCCc1ccccc1)NC(=O)C1CN(C(=O)c2coc(C)n2)CC2CN(C(=O)c3ccc(OC(C)C)c(OC)c3)CC21 (stereo partly drawn) [I-166] | < 5.00 | < 5.00
CNC(=O)[C@H](CCCc1ccccc1)NC(=O)C1CN(C(=O)Cc2ccc3ncccc3c2)CC2CN(C(=O)c3ccc(OC(C)C)c(OC)c3)CC21 (stereo partly drawn) [I-167] | < 5.00 | < 5.00
CNC(=O)[C@H](CCCc1ccccc1)NC(=O)C1CN(C(=O)c2cc(-c3ccccc3)n[nH]2)CC2CN(C(=O)c3ccc(OC(C)C)c(OC)c3)CC21 (stereo partly drawn) [I-168] | < 5.00 | < 5.00
CNC(=O)[C@H](CCCc1ccccc1)NC(=O)C1CN(C(=O)C2(C)CCOCC2)CC2CN(C(=O)c3ccc(OC(C)C)c(OC)c3)CC21 (stereo partly drawn) [I-169] | < 5.00 | < 5.00
CNC(=O)[C@H](CCCc1ccccc1)NC(=O)C1CN(C(=O)c2cc3cccc(C)c3[nH]2)CC2CN(C(=O)c3ccc(OC(C)C)c(OC)c3)CC21 (stereo partly drawn) [I-170] | < 5.00 | < 5.00
CNC(=O)[C@H](CCCc1ccccc1)NC(=O)C1CN(C(=O)c2c[nH]c3cc(Cl)ccc23)CC2CN(C(=O)c3ccc(OC(C)C)c(OC)c3)CC21 (stereo partly drawn) [I-172] | < 5.00 | < 5.00
CNC(=O)[C@H](CCCc1ccccc1)NC(=O)C1CN(C(=O)Cc2c[nH]c3ccc(F)cc23)CC2CN(C(=O)c3ccc(OC(C)C)c(OC)c3)CC21 (stereo partly drawn) [I-173] | 5.30 to 6.30 | < 5.00
CNC(=O)[C@H](CCCc1ccccc1)NC(=O)C1CN(C(=O)Cc2c[nH]c3c(C)cccc23)CC2CN(C(=O)c3ccc(OC(C)C)c(OC)c3)CC21 (stereo partly drawn) [I-175] | < 5.00 | < 5.00
CNC(=O)[C@H](CCCc1ccccc1)NC(=O)C1CN(C(=O)C(C)(C)c2c[nH]c3ccccc23)CC2CN(C(=O)c3ccc(OC(C)C)c(OC)c3)CC21 (stereo partly drawn) [I-177] | < 5.00 | < 5.00
CNC(=O)[C@H](CCCc1ccccc1)NC(=O)C1CN(C(=O)Cc2cccc3[nH]ccc23)CC2CN(C(=O)c3ccc(OC(C)C)c(OC)c3)CC21 (stereo partly drawn) [I-178] | < 5.00 | < 5.00
CNC(=O)[C@H](CCCc1ccccc1)NC(=O)C1CN(C(=O)Cc2c[nH]c3ncccc23)CC2CN(C(=O)c3ccc(OC(C)C)c(OC)c3)CC21 (stereo partly drawn) [I-179] | < 5.00 | < 5.00
CNC(=O)[C@H](CCCc1ccccc1)NC(=O)C1CN(C(=O)c2cnc3ccccc3c2)CC2CN(C(=O)c3ccc(OC(C)C)c(OC)c3)CC21 (stereo partly drawn) [I-181] | < 5.00 | < 5.00
CNC(=O)[C@H](CCCc1ccccc1)NC(=O)C1CN(C(=O)c2n[nH]c3ccccc23)CC2CN(C(=O)c3ccc(OC(C)C)c(OC)c3)CC21 (stereo partly drawn) [I-182] | < 5.00 | < 5.00
CNC(=O)[C@H](CCCc1ccccc1)NC(=O)C1CN(C(=O)c2cc(C)[nH]n2)CC2CN(C(=O)c3ccc(OC(C)C)c(OC)c3)CC21 (stereo partly drawn) [I-183] | < 5.00 | < 5.00
CNC(=O)[C@H](CCCc1ccccc1)NC(=O)C1CN(C(=O)c2ccc(C)cn2)CC2CN(C(=O)c3ccc(OC(C)C)c(OC)c3)CC21 (stereo partly drawn) [I-184] | < 5.00 | < 5.00
CNC(=O)[C@H](CCCc1ccccc1)NC(=O)C1CN(C(=O)Cc2nnn[nH]2)CC2CN(C(=O)c3ccc(OC(C)C)c(OC)c3)CC21 (stereo partly drawn) [I-186] | < 5.00 | < 5.00
CNC(=O)[C@H](CCCc1ccccc1)NC(=O)C1CN(C(=O)c2ocnc2C)CC2CN(C(=O)c3ccc(OC(C)C)c(OC)c3)CC21 (stereo partly drawn) [I-187] | < 5.00 | < 5.00
CNC(=O)[C@H](CCCc1ccccc1)NC(=O)C1CN(C(=O)c2ccc(C)[nH]2)CC2CN(C(=O)c3ccc(OC(C)C)c(OC)c3)CC21 (stereo partly drawn) [I-189] | < 5.00 | < 5.00
CNC(=O)[C@H](CCCc1ccccc1)NC(=O)C1CN(C(=O)c2c[nH]c3c(C)cccc23)CC2CN(C(=O)c3ccc(OC(C)C)c(OC)c3)CC21 (stereo partly drawn) [I-191] | < 5.00 | < 5.00
CNC(=O)[C@H](CCCc1ccccc1)NC(=O)C1CN(C(=O)c2cc(Cl)[nH]n2)CC2CN(C(=O)c3ccc(OC(C)C)c(OC)c3)CC21 (stereo partly drawn) [I-197] | < 5.00 | < 5.00
CNC(=O)[C@H](CCCc1ccccc1)NC(=O)C1CN(C(=O)Cc2c[nH]c3ccc(OC)cc23)CC2CN(C(=O)c3ccc(OC(C)C)c(OC)c3)CC21 (stereo partly drawn) [I-200] | 5.00 to 5.30 | < 5.00
